Laboratory results reported in patent US9394297B2, “Amides as pim inhibitors” (AMGEN INC., priority 2012, dated 2016).
Where two headings read alike, the source gives them in different places.

What was measured:
[1] = target: Pim-1 (Homo sapiens (Human), UniProt P11309); assay: Pim-Mn enzyme assay (HTRF, 384-well), Pim-1; assay type: biochemical; conditions: Pim-1 enzyme 5 pM, ATP 1.5 μM, BAD (S112) 0.5 μM, HTRF, 22-point curve; read-out: Pim-1-Mn IC50 IP
[2] = target: Pim-2 (Homo sapiens (Human), UniProt Q9P1W9); assay: Pim-Mn enzyme assay (HTRF, 384-well), Pim-2; assay type: biochemical; conditions: read-out: Pim-2-Mn IC50 IP
Sequence of Pim-2 (Q9P1W9 whole entry): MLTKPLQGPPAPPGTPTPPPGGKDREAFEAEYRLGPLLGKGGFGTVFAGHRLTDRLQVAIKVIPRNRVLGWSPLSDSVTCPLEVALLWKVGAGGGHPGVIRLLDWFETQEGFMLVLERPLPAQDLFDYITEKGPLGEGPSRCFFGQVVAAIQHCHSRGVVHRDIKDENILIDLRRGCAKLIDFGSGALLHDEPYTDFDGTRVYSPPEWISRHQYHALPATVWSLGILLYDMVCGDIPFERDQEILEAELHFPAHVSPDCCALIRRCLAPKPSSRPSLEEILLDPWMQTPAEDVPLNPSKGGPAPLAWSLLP

[3] = tested on: KMS-12-BM cell lines; assay: KMS12 #2 flow cytometry assay (phospho-BAD Ser112); assay type: cell-based; conditions: Homo sapiens, 110 min; KMS-12-BM cells, pBAD Ser112 by flow cytometry, 110 min with compound; read-out: KMS-12-Flow IC50 IP
[4] = Pim-2 enzyme 0.5 pM, ATP 1.5 μM, BAD (S112) 0.5 μM, HTRF, 22-point curve

Sequence of Pim-1 (P11309 whole entry): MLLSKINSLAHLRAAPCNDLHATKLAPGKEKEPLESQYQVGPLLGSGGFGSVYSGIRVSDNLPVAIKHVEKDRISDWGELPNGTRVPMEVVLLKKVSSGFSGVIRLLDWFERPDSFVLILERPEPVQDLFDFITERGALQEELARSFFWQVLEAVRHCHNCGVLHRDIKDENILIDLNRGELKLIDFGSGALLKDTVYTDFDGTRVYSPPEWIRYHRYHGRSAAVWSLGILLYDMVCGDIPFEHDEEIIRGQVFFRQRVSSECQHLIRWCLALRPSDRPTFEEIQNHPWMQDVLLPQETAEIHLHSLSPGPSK

Row | Compound | IC50 [1] [nM] | IC50 [2, 4] [nM] | IC50 [3] [nM] | IC50 [2] [nM]
1 | Cc1nc2cccc(-c3cc4c([nH]3)[C@@H](C)NC4=O)c2nc1NC(C)C [Example 287, (6R)-6-methyl-2-(2-methyl-3-((1-methylethyl)amino)-5-quinoxalinyl)-5,6-dihydropyrrolo[3,4-b]pyrrol-4(1H)-one] | 1.78 | 1.64 | 75.8 | –
2 | Cc1nc2ccc(F)c(-c3cc4c([nH]3)[C@H](C)NC4=O)c2nc1NC1CC1 [Example 285, (S)-2-(3-(cyclopropylamino)-6-fluoro-2-methylquinoxalin-5-yl)-6-methyl-5,6-dihydropyrrolo[3,4-b]pyrrol-4(1H)-one] | 0.534 | 0.902 | 51.8 | –
3 | Cc1nc2cccc(-c3[nH]c4c(c3C)C(=O)NCC4)c2nc1NC(C)(C)C [Example 350, 2-(3-(tert-butylamino)-2-methyl-5-quinoxalinyl)-3-methyl-1,5,6,7-tetrahydro-4H-pyrrolo[3,2-c]pyridin-4-one] | 2.31 | 3.38 | 1510 | –
4 | Cc1nc2cccc(-c3cc4c([nH]3)C(CO)NC4=O)c2nc1NC1(C)CC1 (stereo not drawn) [Example 360, 6-(hydroxymethyl)-2-(2-methyl-3-((1-methylcyclopropyl)amino)quinoxalin-5-yl)-5,6-dihydropyrrolo[3,4-b]pyrrol-4 (1H)-one] | 1.42 | 1.37 | 88.4 | –
5 | Cc1nc2cccc(-c3cc4c([nH]3)CCNC4=O)c2nc1-c1ccccn1 [Example 429, 2-(2-Methyl-3-(pyridin-2-yl)quinoxalin-5-yl)-6,7-dihydro-1H-pyrrolo[3,2-c]pyridin-4(5H)-one] | 212 | 167 | 8730 | –
6 | COCCn1c(NC(C)(C)C)nc2c(-c3cc4c([nH]3)[C@@H](C)NC4=O)cccc2c1=O [Example 459, 2-(tert-butylamino)-3-(2-methoxyethyl)-8-((6R)-6-methyl-4-oxo-1,4,5,6-tetrahydropyrrolo[3,4-b]pyrrol-2-yl)-4(3H)-quinazolinone] | 0.199 | 0.193 | 76 | –
7 | Cc1nc2cccc(-c3cc4c([nH]3)CCNC4=O)c2nc1NC(C)(C)CN [Example 341, 2-(3-((2-amino-1,1-dimethylethyl)amino)-2-methyl-5-quinoxalinyl)-1,5,6,7-tetrahydro-4H-pyrrolo[3,2-c]pyridin-4-one] | 6.85 | – | 7830 | 10.7
8 | Cc1nc2cccc(-c3cc4c([nH]3)[C@@H](C)NC4=O)c2nc1NC1(C)CC1 [Example 333, (6R)-6-methyl-2-(2-methyl-3-((1-methylcyclopropyl)amino)-5-quinoxalinyl)-5,6-dihydropyrrolo[3,4-b]pyrrol-4(1H)-one] | 0.185 | 0.183 | 8.42 | –
9 | Cc1nc2cccc(-c3[nH]c4c(c3Cl)C(=O)NC4)c2nc1NC1(C)CC1 [Example 358, 3-Chloro-2-(2-methyl-3-((1-methylcyclopropyl)amino)quinoxalin-5-yl)-5,6-dihydropyrrolo[3,4-b]pyrrol-4(1H)-one] | 0.0339 | 0.0783 | 49.6 | –
10 | Cc1nc2cccc(-c3cc4c([nH]3)CCNC4=O)c2nc1NCC(F)(F)F [Example 336, 2-(2-methyl-3-((2,2,2-trifluoroethyl)amino)-5-quinoxalinyl)-1,5,6,7-tetrahydro-4H-pyrrolo[3,2-c]pyridin-4-one] | 2.82 | 1.32 | 145 | –
11 | Cc1nc2cccc(-c3cc4n(c3)C(=O)NC4)c2nc1NC(C)(C)C [Example 421, 6-(3-(tert-butylamino)-2-methylquinoxalin-5-yl)-1H-pyrrolo[1,2-c]imidazol-3(2H)-one] | 86 | 189 | 21200 | –
12 | COC1=NCCc2[nH]c(-c3cccc4nc(C)c(NC(C)(C)C)nc34)cc21 [Example 351, N-tert-butyl-8-(4-methoxy-6,7-dihydro-1H-pyrrolo[3,2-c]pyridin-2-yl)-3-methyl-2-quinoxalinamine] | 9.23 | 8.9 | 2350 | –
13 | Cc1nc2cccc(-c3cc4c([nH]3)CCNC4=O)c2nc1NC(C)c1ccncn1 (stereo not drawn) [Example 323, 2-(2-methyl-3-((1-(pyrimidin-4-yl)ethyl)amino)quinoxalin-5-yl)-6,7-dihydro-1H-pyrrolo[3,2-c]pyridin-4(5H)-one] | 83.8 | 62.7 | > 20000 | –
14 | Cc1nc2cccc(-c3cc4c([nH]3)CCNC4=O)c2nc1NC(C)c1cnccn1 (stereo not drawn) [Example 322, 2-(2-methyl-3-((1-(pyrazin-2-yl)ethyl)amino)quinoxalin-5-yl)-6,7-dihydro-1H-pyrrolo[3,2-c]pyridin-4(5H)-one] | 94.6 | 163 | > 40000 | –
15 | Cc1nc2cccc(-c3cc4c([nH]3)[C@H](C)NC4=O)c2nc1NCC(F)(F)F [Example 293, (6S)-6-methyl-2-(2-methyl-3-((2,2,2-trifluoroethyl)amino)-5-quinoxalinyl)-5,6-dihydropyrrolo[3,4-b]pyrrol-4(1H)-one] | 6.37 | 6.02 | 410 | –
16 | Cc1nc2cccc(-c3cc4c([nH]3)CCNC4=O)c2nc1NC(C)(C)CN1CCOCC1 [Example 457, 2-(3-((1,1-dimethyl-2-(4-morpholinyl)ethyl)amino)-2-methyl-5-quinoxalinyl)-1,5,6,7-tetrahydro-4H-pyrrolo[3,2-c]pyridin-4-one] | 35.7 | 134 | 3490 | –
17 | Cc1nc2cccc(-c3cc4c([nH]3)C(CCO)NC4=O)c2nc1NC(C)(C)C (stereo not drawn) [Example 462, 2-(3-(tert-butylamino)-2-methyl-5-quinoxalinyl)-6-(2-hydroxyethyl)-5,6-dihydropyrrolo[3,4-b]pyrrol-4(1H)-one] | 0.51 | 0.47 | 122 | –
18 | Cc1nc2cccc(-c3cc4c([nH]3)[C@@H](CO)NC4=O)c2nc1NC1CC1 [Example 366, (S)-2-(3-(cyclopropylamino)-2-methylquinoxalin-5-yl)-6-(hydroxymethyl)-5,6-dihydropyrrolo[3,4-b]pyrrol-4(1H)-one] | 0.192 | 0.177 | 79.4 | –
19 | Cc1nc2cccc(-c3cc4c([nH]3)C(COCc3ccccc3)NC4=O)c2nc1NC(C)(C)C (racemic) [Example 468, (6R)-6-((benzyloxy)methyl)-2-(3-(tert-butylamino)-2-methyl-5-quinoxalinyl)-5,6-dihydropyrrolo[3,4-b]pyrrol-4(1H)-one and (6S)-6-((benzyloxy)methyl)-2-(3-(tert-butylamino)-2-methyl-5-quinoxalinyl)-5,6-dihydropyrrolo[3,4-b]pyrrol-4(1H)-one] | 5.4 | 7.94 | 3390 | –
20 | Cc1nc2cccc(-c3cc4c(=O)[nH]ncc4[nH]3)c2nc1NC(C)(C)C [Example 423, 2-(3-(tert-butylamino)-2-methylquinoxalin-5-yl)-1H-pyrrolo[2,3-d]pyridazin-4(5H)-one] | 5.44 | 3.71 | 378 | –
21 | CN(c1ncc2cccc(-c3cc4c([nH]3)CCNC4=O)c2n1)C(C)(C)C [Example 377, 2-(2-(tert-butyl(methyl)amino)quinazolin-8-yl)-6,7-dihydro-1H-pyrrolo[3,2-c]pyridin-4(5H)-one] | 2.43 | 3.32 | 1630 | –
